Laboratory results taken from PMC8066331, “Anticancer Activity of Triazolo-Thiadiazole Derivatives and Inhibition of AKT1 and AKT2 Activation” (Pharmaceutics, 2021).

Assays:
DU-145 = assay: MTT in vitro antiproliferative assay, DU-145; assay type: cell-based, human; conditions: DU-145, MTT; for TGI / GI50: 48 h drug exposure; for IC50 / GI50: Homo sapiens; for IC50: 48 h, 50% cell death, read-out: IC50; for GI50: read-out: GI50
From the text: (§1) The in vitro antiproliferative activities of the novel triazolo[3,4-b]thiadiazole derivatives were estimated in ten well-established human cancer cell lines including three ovarian (SKOV-3, UWB 1.289, and UWB 1.289+BRCA1), five colorectal adenocarcinoma (DLD-1, HT-29, LS174T, LoVo, and SW403), and two prostate cancer cell lines (PC-3 and DU-145). All cancer cell lines were obtained from the American Type Culture Collection (ATCC) and cultivated in different culture media according to the instructions. The required growth mediums were supplemented with 10% fetal bovine serum and 1% streptomycin/penicillin. All cancer cell lines were cultured as monolayers and maintained at 37 °C, 5% CO2 in humidified air.
(§2) Stock solutions of all tested compounds were prepared by dissolving the required amount of substances in the DMSO solvent to reach the desired concentration of 15 mM.
(§3) To evaluate the in vitro antiproliferative activity of the triazolo[3,4-b]thiadiazole derivatives, 3-(4,5-dimethylthiazol-2-yl)-2,5-diphenyltetrazolium bromide (MTT) assay was assessed. According to the protocol, cells were firstly seeded into a 96-well plate at a density of 8 × 10^3 cells and grown for 24 h at 37 °C, 5% CO2 in humidified air. Subsequently, cells were treated with the tested compounds in a specific range of drug concentrations (1–100 μΜ). Following 48 h of drug exposure, the culture media were discarded and replaced with 100 μL of fresh medium. Afterwards, 50 μL of dissolved MTT in phosphate-buffered saline (PBS) solution (5 mg/mL) were added in each well and cells were incubated for 3 h at 37 °C, 5% CO2 in humidified air. Incubation time was followed by MTT discard and the addition of 100 μL of DMSO solvent so that the formazan crystals could be dissolved. The absorbance of the converted dye was immediately measured at a wavelength of 540 nm on an ELISA reader (VersaMax Microplate Reader, Orleans, CA, USA).
(§4) The in vitro anticancer effect of a tested compound on cell viability was determined by three dose–response parameters termed GI50, TGI, and IC50. More specifically, the GI50 value indicates the required concentration of the compound that impels 50% cell growth inhibition, the TGI value corresponds to the concentration that induces 100% cell growth inhibition, and the IC50 value is the concentration that causes 50% cell death. The two parameters GI50 and TGI represent the cytostatic activity, whereas IC50 reflects the cytotoxic effect of a drug. To estimate the three parameters, nine absorbance measurements were required including control 24 h (Ct24), control 72 h (Ct72), and the mean of cell survival in all seven drug concentrations (Tt72). The percentage growth inhibition was calculated according to National Cancer Institute’s (NCI) protocol: [(Tt72x) − (Ct24)/(Ct72) − (Ct24)] × 100 for concentrations for which Tt72x > Ct24 and [(Tt72x) − (Ct24)/Ct24] × 100 for concentrations for which Tt72x < Ct24. GI50 was calculated from [(Tt72x) − (Ct24)/(Ct72) − (Ct24)] × 100 = 50, TGI was calculated from [(Tt72x) − (Ct24)/(Ct72) − (Ct24)] × 100 = 0, and IC50 was calculated from [(Tt72x) − (Ct24)/Ct24] × 100 = 50. All the experiments were carried out in triplicate.

PC-3 = assay: MTT in vitro antiproliferative assay, PC-3; assay type: cell-based; conditions: Homo sapiens, PC-3, MTT; for IC50: 48 h, 50% cell death, read-out: IC50; for GI50 / IC (TGI): 48 h drug exposure; for GI50: read-out: GI50; for IC (TGI): read-out: TGI
From the text: as §1, §2, §3, §4

SKOV-3 = assay: MTT in vitro antiproliferative assay, SKOV-3; assay type: cell-based; conditions: Homo sapiens, SK-OV-3, SKOV-3, MTT; for IC50: 48 h, concentration causing 50% cell death, read-out: IC50; for GI50 / IC (TGI): 48 h drug exposure; for GI50: read-out: GI50; for IC (TGI): read-out: TGI
From the text: as §1, §2, §3, §4

SW403 = assay: MTT in vitro antiproliferative assay, SW403; assay type: cell-based, human; conditions: for TGI: 48 h drug exposure; for IC50 / GI50: Homo sapiens; for IC50: SW-403, 48 h, 50% cell death; for GI50: SW-403, 48 h drug exposure
From the text: as §1, §2, §3, §4

HT-29 = assay: MTT in vitro antiproliferative assay, HT-29; assay type: cell-based, human; conditions: HT-29, MTT; for IC50 / GI50: Homo sapiens; for IC50: 48 h, 50% cell death, read-out: IC50; for GI50: read-out: GI50
From the text: as §1, §2, §3, §4

LoVo = assay: MTT in vitro antiproliferative assay, LoVo; assay type: cell-based, human; conditions: for TGI / GI50: 48 h drug exposure; for IC50 / GI50: Homo sapiens; for IC50: 48 h, 50% cell death
From the text: as §1, §2, §3, §4

UWB1.289+BRCA1 = assay: MTT in vitro antiproliferative assay, UWB1.289+BRCA1; assay type: cell-based, human; conditions: UWB1.289+BRCA1, MTT; for IC50 / GI50: Homo sapiens; for IC50: 48 h, 50% cell death; for GI50 / TGI: 48 h drug exposure
From the text: as §1, §2, §3, §4

LS174T = assay: MTT in vitro antiproliferative assay, LS174T; assay type: cell-based, human; conditions: for TGI / GI50: 48 h drug exposure; for IC50 / GI50: Homo sapiens; for IC50: 48 h, 50% cell death
From the text: as §1, §2, §3, §4

In vivo acute toxicity = conditions: both sexes, mouse, in vivo, ip; CB17 SCID mice, single i.p. injection, 30 days observation, estimated graphically
Method: (§5) CB17 severe combined immunodeficient (SCID) male and female mice were used for toxicity and antitumor activity studies. Mice were obtained from National Center for Scientific Research (NCSR) Demokritos, Institute of Biology, Athens, Greece. CB17 SCID mice were fed water and an irradiated standard rodent diet ad libitum and housed under specific pathogen-free conditions. For ethical reasons, the weight and tumor volumes of the animals were measured twice a week during the experiment. In case of cachexia, suffering, or increase in the tumor volume up to 2000 mm^3, the animals were sacrificed by cervical disruption.
(§6) For intraperitoneal (i.p.) treatment, stock solutions of the 3 tested compounds were prepared immediately before use. They were suspended in corn oil in the desired concentrations following initial dissolution in 10% dimethyl sulfoxide (DMSO). […] Briefly, the acute toxicity of the tested compounds was assessed for lethality in CB17 SCID mice and determined as previously described. […] Each dosage comprised a group of ten mice, including males and females, that received single i.p. injections.

CB17 SCID mice = assay: In vivo acute toxicity; conditions: single i.p. injection, 30 days observation, estimated graphically
Method: as §5, §6

UWB 1.289 = assay: MTT in vitro antiproliferative assay, UWB 1.289; assay type: cell-based, human; conditions: UWB 1.289, MTT; for IC50 / GI50: Homo sapiens, UWB1289; for IC50: 48 h, 50% cell death; for GI50 / TGI: 48 h drug exposure
From the text: as §1, §2, §3, §4

## COc1cc(Cc2nnc3sc(C=Cc4ccc(Cl)cc4)nn23)c(S(=O)(=O)N(C)C)cc1OC [KA26]
DU-145
  TGI: 70 ± 1.3 μΜ
  IC50: > 100 µM
  GI50: 7 ± 1 µM
PC-3
  IC50: > 100 µM
  GI50: 42.5 ± 1.5 µM
  IC (TGI): > 100 µM
SKOV-3
  IC50: > 100 µM
  GI50: 20 ± 0.5 µM
  IC (TGI): > 100 µM
SW403
  TGI: >100 μΜ
  IC50: > 100 µM
  GI50: 11 ± 0.8 µM
HT-29
  IC50: > 100 µM
HT-29; 48 h drug exposure
  GI50: 2 ± 0.76 µM
LoVo
  TGI: >100 μΜ
  IC50: > 100 µM
  GI50: 15 ± 0.8 µM
UWB1.289+BRCA1
  IC50: > 100 µM
  GI50: 42 ± 0.5 µM
  TGI: 65 ± 0.7 μΜ
LS174T
  TGI: >100 μΜ
  IC50: > 100 µM
  GI50: 8 ± 1.5 µM
In vivo acute toxicity
  LD50 at 30 days: 160 mg/kg
CB17 SCID mice
  LD10: 100 mg/kg
UWB 1.289
  IC50: 70 ± 1.4 µM
  GI50: 29 ± 0.7 µM
  TGI: 53 ± 1 μΜ

## COc1cc(Cc2nnc3sc(C=Cc4ccc(F)cc4)nn23)c(S(=O)(=O)N(C)C)cc1OC [KA25]
DU-145
  TGI: 13.2 ± 0.5 μΜ
  IC50: 27 ± 0.3 µM
  GI50: 12.8 ± 1.3 µM
PC-3
  IC50: > 100 µM
  GI50: 14 ± 1 µM
  IC (TGI): 22 ± 0.8 µM
SKOV-3
  IC50: 85 ± 2.1 µM
  GI50: 15 ± 0.5 µM
  IC (TGI): 50 ± 1.5 µM
SW403
  TGI: >100 μΜ
  IC50: > 100 µM
  GI50: 4.8 ± 0.8 µM
HT-29
  IC50: > 100 µM
HT-29; 48 h drug exposure
  GI50: 1 ± 0.3 µM
LoVo
  TGI: 13.8 ± 0.52 μΜ
  IC50: > 100 µM
  GI50: 8 ± 0.76 µM
UWB1.289+BRCA1
  IC50: 38 ± 1.1 µM
  GI50: 4 ± 0.5 µM
  TGI: 13 ± 0.8 μΜ
LS174T
  TGI: 100 ± 0.1 μΜ
  IC50: > 100 µM
  GI50: 9.3 ± 2 µM
In vivo acute toxicity
  LD50 at 30 days: 360 mg/kg
CB17 SCID mice
  LD10: 200 mg/kg
UWB 1.289
  IC50: 62 ± 1.2 µM
  GI50: 2 ± 0.5 µM
  TGI: 5 ± 0.7 μΜ

## COc1cc(Cc2nnc3sc(-c4cc([N+](=O)[O-])ccc4[N+](=O)[O-])nn23)c(S(=O)(=O)N(C)C)cc1OC [KA39]
DU-145
  TGI: 8 ± 0.4 μΜ
  IC50: 10.3 ± 1.8 µM
  GI50: 5.8 ± 0.2 µM
PC-3
  IC50: 12 ± 0.1 µM
  GI50: 5 ± 0.15 µM
  IC (TGI): 8 ± 0.1 µM
SKOV-3
  IC50: 25 ± 1.4 µM
  GI50: 7 ± 0.2 µM
  IC (TGI): 12 ± 0.8 µM
SW403
  TGI: 7.9 ± 0.7 μΜ
  IC50: 10 ± 0.76 µM
  GI50: 5.2 ± 0.2 µM
HT-29; 48 h drug exposure
  TGI: 15.9 ± 0.55 μΜ
  GI50: 11.5 ± 0.8 µM
HT-29
  IC50: 19.5 ± 0.9 µM
LoVo
  TGI: 5.5 ± 0.1 μΜ
  IC50: 10.5 ± 0.15 µM
  GI50: 2.2 ± 0.2 µM
UWB1.289+BRCA1
  IC50: 94 ± 2.3 µM
  GI50: 6 ± 0.5 µM
  TGI: 11 ± 0.7 μΜ
LS174T
  TGI: 17 ± 1.3 μΜ
  IC50: 21.5 ± 1.5 µM
  GI50: 12 ± 1.5 µM
In vivo acute toxicity
  LD50 at 30 days: 100 mg/kg
CB17 SCID mice
  LD10: 70 mg/kg
UWB 1.289
  IC50: 22 ± 1.2 µM
  GI50: 6 ± 0.2 µM
  TGI: 10 ± 0.8 μΜ
